Marks after values point to notes of the source that are not given here.

For data set [1], the system named is VanA and VanB gene sequences. Nature of the data set: HPA for detecting VanA and VanB gene sequences (Example 12). It counts as binding, E. faecalis, E. faecium. As for the experimental part: Double-stranded plasmids harboring inserts of either VanA or VanB gene sequences were prepared for use as control templates. More specifically, VanA gene sequences were amplified in a PCR protocol using primers having the sequences of VanA(+)464 Kpn and VanA(−)1325Bam. Similarly, VanB gene sequences were amplified using primers having the sequences of VanB(+)084 Kpn and VanB(−)1006Bam. Genomic DNA samples from bacteria known to have VanA or VanB genotypes were used as templates in the amplification reactions. Blunt-ended amplification products containing VanA gene sequences were ligated into a pPCR-[…] SK(+) (Stratagene; La Jolla, Calif.) plasmid cloning vector, and propagated in E. coli host bacteria using procedures that will be familiar to those having an ordinary level of skill in the art. Double-stranded amplification products containing VanB gene sequences were first digested with KpnI and BamHI, and then ligated into a similarly cleaved pBLUESCRIPT-II KS(+) (Stratagene; La Jolla, Calif.) plasmid cloning vector. Isolated double-stranded plasmid DNA served as controls in hybridization assays.
2′-deoxy probes having the sequences presented under Example 10 were prepared by standard phosphoramidite synthesis. AE labeling of the probes also was performed using standard procedures, as described herein and as will be familiar to those having an ordinary level of skill in the art. Samples of four different cultured VRE bacteria described under the previous Example were lysed essentially as described above. RNA in the samples was hydrolyzed and DNA denatured by incubation of the lysate with hydroxide at elevated temperature. In parallel procedures, samples of two plasmid clones harboring either the VanA or VanB inserts (as described under the previous Example) were also treated to denature DNA. All samples were neutralized by addition of a buffered HCl reagent. AE-labeled probes were added to each of the samples and then hybridized at 55-60° C. for 45 minutes to permit formation of complementary probe:target duplexes. The pan-bacterial probe (Probe Reagent 1, GEN-PROBE® MTC-NI Kit, catalog no. 4573) described under Example 2 was used as a positive control to confirm the presence of bacterial nucleic acid targets. Trials containing labeled probe in the absence of an added target (i.e., “probe alone”) served as negative controls. The AE label joined to probe molecules that remained single-stranded following the hybridization procedure were destroyed by treatment under mild alkaline conditions, and the extent of specific hybrid formation quantified by luminometry as described in the foregoing Examples.

For data set [2], the system named is mecA gene; Staphylococcus ribosomal nucleic acids. Nature of the data set: HPA after thermal lysis, base hydrolysis and neutralization (Examples 5-7). Type of data set: binding, S. aureus. As for the experimental part: The cultured S. aureus specimens were lysed by suspending 1 μl loops of bacteria in 150 μl of lysis buffer and then incubating at 105° C. for 15 minutes. Next, 100 μl of 2 N LiOH base solution was added and RNA was hydrolyzed by incubating the mixtures at 60° C. for 15 minutes. Hydrolyzed samples were neutralized by the addition of 100 μl of a neutralizing reagent that included 2 N HCl and 100 mM succinate buffer (pH 5.5 prior to acidification with HCl). Specifically hybridized probe was detected by standard HPA, essentially as described in Example 1.
Specimens (1 μl loops of bacteria) were treated and tested essentially as described in Example 5 with the following differences: incubation for lysis was for 15 minutes and incubation for hybridization was for 45 minutes for samples shown in Tables 7-8, while incubation for lysis was for 10 minutes and incubation for hybridization was for 20 minutes for samples shown in Table 9. All of the base-treated solutions were neutralized by the addition of 250 μl of 0.8 N HCl containing 100 mM succinate.
2′-methoxy analogs of the AE-labeled DNA probes were prepared by standard phosphoramidite synthesis using 2′ methoxy phosphoramidite analogs. Additional linker positions, which are indicated by parentheses in Table 11, for probe 2 were also prepared for testing. Deoxy probes and 2′-methoxy probe analogs were tested essentially as described in Example 5, except as noted below. Probes synthesized using 2′-methoxy nucleotide analogs are particularly identified by the “MeO” designations. Brief summaries of the procedures used to obtain the results are appended to the tables.

[3] abbreviates: ATCC 51299 (VanB), E. faecalis lysate.
Where [4] appears, read: ATCC 51575 (VanB), E. faecalis lysate.
[5] abbreviates: ATCC 700221 (VanA), E. faecium lysate.
Where [6] appears, read: ATCC 700802 (VanB), E. faecalis lysate.
Setting [7] is: samples containing nucleic acids from VanB-positive VRE bacteria.
Where [8] appears, read: Table 7, lysis 15 minutes, hybridization 45 minutes.
[9] abbreviates: Table 9, lysis 10 minutes, hybridization 20 minutes.
[10] abbreviates: Table 11, neutralize 250 μl 0.8 N HCl containing 100 mM succinate, hybridize 45 minutes at 60° C.
The mark [11] stands for this setting: Table 8, lysis 15 minutes, hybridization 45 minutes.
[12] abbreviates: samples containing nucleic acids from the single VanA-positive bacterial isolate.
Setting [13] is: VanA-positive bacterial sample ATCC # 700221.
Where [14] appears, read: average over VanB-positive bacterial samples ATCC Nos. 51575, 700802 and 51299.

As to “CCAAGCACCCGATATACTTTCTTTGCC (DNA, backbone and methylation of C not given here; further chemistry not fully specified; listed as Enterococcus faecalis) [VanB(−)1006]”, the “Probe Hybridization (in RLU)” value was 8335 RLU in data set [1] (setting [3]); 6300 RLU in data set [1] (setting [4]); 1485 RLU in data set [1] (setting [5]); 9116 RLU in data set [1] (setting [6]); 586 RLU in data set [1] (Probe Alone (no added target)); 1708 RLU in data set [1] (VanA clone (plasmid)). The “Probe Hybridization (in RLU)” value in data set [1] (VanB clone (plasmid)) stood at 27493 RLU. For the same sequence, the “hybridization signal (in words)” value in data set [1] (setting [7]) is “very strong signals”.

“CCACTCAAGAGAGACAACATTTTCGACTAC (chemistry not given here) [S. aureus probe with helpers]”: the RLU in data set [2] (Table 6, GP18(Neg), MSSA ATCC #12600) is given as 148,780 RLU; in data set [2] (Table 6, GP1214(Neg), MSSA ATCC #29247) it was 203,725 RLU; in data set [2] (Table 6, GP1217(Pos), MRSA ATCC #33591), 199,476 RLU; in data set [2] (Table 6, GP1218(Pos), MRSA ATCC #43866) it was 163,825 RLU.

On to “CCGCAGCTTGCATGGACAAATCACTGGC (DNA, backbone and methylation of C not given here; further chemistry not fully specified; listed as Enterococcus faecalis) [VanB(+)084]”, for which the “Probe Hybridization (in RLU)” value in data set [1] (setting [3]) turned out to be 7863 RLU; in data set [1] (setting [4]), 6003 RLU; in data set [1] (setting [5]), 768 RLU; in data set [1] (setting [6]), 10119 RLU; in data set [1] (Probe Alone (no added target)), 371 RLU; in data set [1] (VanA clone (plasmid)) it was 716 RLU. Further, the “Probe Hybridization (in RLU)” value in data set [1] (VanB clone (plasmid)) was determined as 54711 RLU. In addition, the “hybridization signal (in words)” value in data set [1] (setting [7]) is “very strong signals”.

For the sequence “CGATTGTGACACGATAGCCATCTTCATGTTGGAGC (DNA, backbone and methylation of C not given here; acridinium ester label on internal non-nucleotide linker; listed as Staphylococcus aureus) [probe 6]”, in data set [2] (setting [8]), the “GP18(Neg) RLU” value is 1195 RLU, the “GP1217(Pos) RLU” value is reported as 38158 RLU and the “Probe alone Avg RLU” value stood at 6117 RLU. In data set [2] (setting [9]), the “GP1217(Pos) RLU” value was determined as 55947 RLU and the “Probe alone Avg RLU” value is given as 1004 RLU. Besides, in data set [2] (setting [10]), the “GP1214(Neg) RLU” value is 1994 RLU, the “GP1217(Pos) RLU” value stood at 43307 RLU and the “Probe alone Avg RLU” value is given as 1540 RLU.

Consider “CGCATCCATCAGGAAAACGAGCCGG (DNA, backbone and methylation of C not given here; acridinium ester (AE) label attached via linker; listed as Enterococcus faecalis) [VanB(+)428]”, for which the “Probe Hybridization (in RLU)” value amounted to 8113 RLU in data set [1] (setting [3]); 6307 RLU in data set [1] (setting [4]); 683 RLU in data set [1] (setting [5]); 9657 RLU in data set [1] (setting [6]); 370 RLU in data set [1] (Probe Alone (no added target)); 684 RLU in data set [1] (VanA clone (plasmid)). The “Probe Hybridization (in RLU)” value in data set [1] (VanB clone (plasmid)) stood at 49242 RLU. The “hybridization signal (in words)” value in data set [1] (setting [7]) is given as “very strong signals”.

Take “CGGACGTTCAGTCATTTCTACTTCACCATTATCGC (DNA, backbone and methylation of C not given here; acridinium ester label on internal non-nucleotide linker; listed as Staphylococcus aureus) [probe 4]”: in data set [2] (setting [11]), the “GP18(Neg) RLU” value is recorded as 641 RLU, the “GP1217(Pos) RLU” value is reported as 20192 RLU and the “Probe alone Avg RLU” value turned out to be 690 RLU. Besides, in data set [2] (setting [9]), the “GP1217(Pos) RLU” value came out at 34352 RLU and the “Probe alone Avg RLU” value was 734 RLU.

“CGTTCAGTACAATGCGGCCG (DNA, backbone and methylation of C not given here; further chemistry not fully specified; listed as Enterococcus faecium) [VanA(−)1325]”: the “Probe Hybridization (in RLU)” value in data set [1] (setting [3]) is on record as 1182 RLU; in data set [1] (setting [4]), 1761 RLU; in data set [1] (setting [5]), 23523 RLU; in data set [1] (setting [6]), 931 RLU; in data set [1] (Probe Alone (no added target)), 368 RLU; in data set [1] (VanA clone (plasmid)) it was 24378 RLU. Moreover, in data set [1] (VanB clone (plasmid)), the “Probe Hybridization (in RLU)” value turned out to be 942 RLU. The “hybridization signal (in words)” value in data set [1] (setting [12]) was “very strong hybridization signals”.

Turning to “GAGCTTTGAATATCGCAGCCTAC (AE label linker 11/12, chemistry not fully specified; listed as Enterococcus faecalis) [Van A&B(−)734]”, the “Probe Hybridization (in RLU)” value was found to be 5497 RLU in data set [1] (setting [3]); 5166 RLU in data set [1] (setting [4]); 8901 RLU in data set [1] (setting [5]); 7425 RLU in data set [1] (setting [6]); 240 RLU in data set [1] (Probe Alone (no added target)); 48999 RLU in data set [1] (VanA clone (plasmid)). The “Probe Hybridization (in RLU)” value in data set [1] (VanB clone (plasmid)) is 718† RLU. Also, the “background-corrected hybridization signal relative to negative control (fold greater than background)” value in data set [1] (setting [13]) is listed as “about 36 fold”; in data set [1] (setting [14]), “about 24 fold”. The “hybridization signal (in words)” value in data set [1] (nucleic acids from VRE bacteria either VanA-positive or VanB-positive) was “very strong signals”.

Consider “GCTGAGCTTTGAATATCGCAGCC (AE label linker 8/9, chemistry not fully specified; listed as Enterococcus faecium) [VanA(−)792]”, for which the “Probe Hybridization (in RLU)” value came to 2983 RLU in data set [1] (setting [3]); 2254 RLU in data set [1] (setting [4]); 10627 RLU in data set [1] (setting [5]); 3653 RLU in data set [1] (setting [6]); 256 RLU in data set [1] (Probe Alone (no added target)); 52729 RLU in data set [1] (VanA clone (plasmid)). In addition, the “Probe Hybridization (in RLU)” value in data set [1] (VanB clone (plasmid)) came to 505 RLU. The “background-corrected hybridization signal relative to negative control (fold greater than background)” value is listed as “about 40 fold” in data set [1] (setting [13]) and “about 10.5 fold” in data set [1] (setting [14]). In addition, the “hybridization signal (in words)” value in data set [1] (setting [12]) is reported as “very strong hybridization signals”.

For “GGGTTGCTCAGAGGAGCATGACGTATCGG (DNA, backbone and methylation of C not given here; further chemistry not fully specified; listed as Enterococcus faecium) [VanA(+)464]”, the “Probe Hybridization (in RLU)” value stood at 765 RLU in data set [1] (setting [3]); 696 RLU in data set [1] (setting [4]); 10910 RLU in data set [1] (setting [5]); 757 RLU in data set [1] (setting [6]); 374 RLU in data set [1] (Probe Alone (no added target)); 37434 RLU in data set [1] (VanA clone (plasmid)). In addition, in data set [1] (VanB clone (plasmid)), the “Probe Hybridization (in RLU)” value worked out at 817 RLU. Also, in data set [1] (setting [12]), the “hybridization signal (in words)” value is “very strong hybridization signals”.

The values above are taken from patent US20040229268A1, “Method and kit for identifying antibiotic-resistant microorganisms” (priority 2003, published 2004).
